Literature values, collected in PMC7674238 (Accounts of chemical research, 2020).
Where two headings read alike, the source gives them in different places.

Experiments:
D-Ala-D-Lac = D-Ala-D-Lac vs D-Ala-D-Ala
VanA VRE [1] = details: vancomycin-resistant organisms
[2] = test system: vancomycin-resistant S. aureus (VRSA) strain VRS-2; details: for dose-dependent bactericidal effect, rank order (relative to 2 h baseline): n=5/dose
VanA VRE [3] = test system: VanA VRE
[4] = mice
[5] = mice, iv
VanA VRE [6] = details: 10 μM

SMILES: CN[C@H](CC(C)C)C(=O)N[C@H]1C(=O)N[C@@H](CC(N)=O)C(=O)N[C@H]2C(=O)N[C@H]3C(=O)N[C@H](C(=O)N[C@H](C(=O)O)c4cc(O)cc(O)c4-c4cc3ccc4O)[C@H](O)c3ccc(c(Cl)c3)Oc3cc2cc(c3O[C@@H]2O[C@H](CO)[C@@H](O)[C@H](O)[C@H]2O[C@H]2C[C@](C)(N)[C@H](O)[C@H](C)O2)Oc2ccc(cc2Cl)[C@H]1O [compound 1, vancomycin]
- loss in binding affinity between vancomycin and its target (D-Ala-D-Lac): 1000 fold
- loss in antimicrobial activity (resistance) (VanA VRE [1]): 1000 fold
- dose-dependent bactericidal effect, rank order (relative to 2 h baseline) [2]: 32 > 26 ≥ 16 > linezolid > 1

SMILES: CN[C@H](CC(C)C)C(=O)N[C@H]1C(=O)N[C@@H](CC(N)=O)C(=O)N[C@H]2C(=O)NC3C(=O)N[C@H](C(=O)N[C@H](C(=O)NCCC[N+](C)(C)C)c4cc(O)cc(O)c4-c4cc3ccc4O)[C@H](O)c3ccc(c(Cl)c3)Oc3cc2cc(c3OC2OC(CO)C(O)[C@H](O)[C@@H]2O[C@H]2CC(C)(NCc3ccc(-c4ccc(Cl)cc4)cc3)[C@H](O)[C@H](C)O2)Oc2ccc(cc2Cl)[C@H]1O (stereo partly shown) [compound 26, C1-CBP-vancomycin]
- resistance development on 50-day serial exposure (VanA VRE [3]): much more muted changes in potency
- reduction in bacteria count ([2]; VanA VRSA, VRS2, without dosing optimization): ~3 log10
- Maximum tolerated dose (MTD) ([4]; iv): ≥ 50 mg/kg
- tolerability [4]: well tolerated in mice
- AUC ([5]; 10 mg/kg): 81.1 µg·h/mL
- CL ([5]; 10 mg/kg): 2 mL/min/kg
- Cmax ([5]; 10 mg/kg): 14100 ng/mL
- Vd ([5]; 10 mg/kg): 1.25 L/kg
- t1/2 ([5]; 10 mg/kg): 7.0 h
- AUC ([5]; 50 mg/kg (MTD)): 430 µg·h/mL
- CL ([5]; 50 mg/kg (MTD)): 2 mL/min/kg
- Cmax ([5]; 50 mg/kg (MTD)): 58900 ng/mL
- Vd ([5]; 50 mg/kg (MTD)): 1.04 L/kg
- t1/2 ([5]; 50 mg/kg (MTD)): 6.2 h
- induction of bacteria cell permeabilization (VanA VRE [6]): more significant

SMILES: CC(=O)NC[C@H]1CN(c2ccc(N3CCOCC3)c(F)c2)C(=O)O1 [linezolid]
- dose-dependent bactericidal effect, rank order (relative to 2 h baseline) [2]: 32 > 26 ≥ 16 > linezolid > 1
